# Laboratory results published in patent US20240391895A1, “PYRIDAZINE-CONTAINING COMPOUND AND MEDICINAL USE THEREOF” (Tuojie Biotech (Shanghai) Co., Ltd., priority 2020, published 2024).
# Target: T1, NLRP3 inflammasome (Homo sapiens, UniProt Q96P20)
# T1 construct: Monocytes were then isolated from the PBMCs using a human pan-monocyte isolation kit; endogenous in cells; host or cells: primary human monocytes isolated from PBMCs of human blood
# Assay: Inhibitory activity against NLRP3 inflammasome in human monocytes (IL-1b ELISA)
# Format: cell-based
# Settings: human monocytes from PBMCs; compound 0.5 h, LPS 100 ng/mL 3.5 h, ATP 5 mM 45 min; IL-1b in supernatant by ELISA; (n = 2) cells are means of n tests; read-out: IL-1β inhibition (EC50)/nM
# Description: Assays for Inhibitory Activity Against NLRP3 Inflammasome in Human Monocytes
# Day 1: PBMCs were separated from human blood by density gradient centrifugation and washed twice with PBS containing 2% FBS (centrifuged at 300 g for 8 min). Monocytes were then isolated from the PBMCs using a human pan-monocyte isolation kit and an LS column. The cells were stained with CD14-FITC at 4° C. for 30 min, and FACS was run on BD FACS Verse to analyze the purity of the pan-monocytes. The cells were counted, and the cell density was adjusted to 2.5×10^5 cells/mL. The cells were seeded into a 96-well plate at 2.5×10^4 monocytes/[…] suspension/well. The plate was incubated overnight at 37° C. in 5% CO2.
# Day 2: Test compounds were pre-titrated so that all titration points, including the DMSO control well, contained 0.1% DMSO. […] At the end of the 3.5 hours' incubation, the cells were stimulated (by adding […] of 40 mM ATP (the final concentration would be 5 mM) to treat the cells for 45 min). […] of supernatant was transferred to a new plate and stored at […]
# Day 3: The supernatant solution was 20-fold diluted for human monocyte IL-1b ELISA according to the manufacturer's instructions.
# Days 3-4: ELISA experiment • 1) Day 3: A capture antibody (diluted with coating buffer) was added to the plate at […]. The plate was sealed and incubated overnight at 4° C. • 2) Day 4: The liquids in the wells were pipetted off, and the plate was washed 3 times with wash buffer, 300 μL/≥each time. After the last wash, the plate was inverted and blotted dry with absorbent paper to remove any residual buffer.
# 3) A test dilution was added to the plate at ≥200 μL/well. The plate was incubated at room temperature for 1 h. • 4) The plate was blotted dry/washed as in step 2. • 5) Standard and sample dilutions were prepared with the test dilution. • 6) Each standard, sample and control was added to a corresponding well at […]. The plate was sealed and incubated at room temperature for 2 h. • 7) The plate was blotted dry/washed as in step 2, except that it was washed 5 times. • 8) The assay antibody was diluted with the test dilution and added to wells at […]/well. • 9) The plate was sealed and incubated at room temperature for 1 h. • 10) The plate was blotted dry/washed as in step 2, except that it was washed 5 times. • 11) The enzyme reagent was diluted with the test dilution and added to wells at […]/well. The plate was sealed and incubated at room temperature for 30 min. • 12) The plate was blotted dry/washed, and the step of soaking for 30 s-1 min was used. The plate was washed 7 times in total. • 13) A substrate solution was added at […]/well. The plate (without plate sealant) was incubated at room temperature in the dark for 30 min. • 14) A stop solution was added at […]. • 15) The absorbance at 450 nm was read using the instrument Envision within 30 min of stopping the reaction. If a wavelength correction was available, the absorbance at 570 nm would be subtracted from the absorbance at 450 nm.
# T1 sequence (Q96P20 whole entry): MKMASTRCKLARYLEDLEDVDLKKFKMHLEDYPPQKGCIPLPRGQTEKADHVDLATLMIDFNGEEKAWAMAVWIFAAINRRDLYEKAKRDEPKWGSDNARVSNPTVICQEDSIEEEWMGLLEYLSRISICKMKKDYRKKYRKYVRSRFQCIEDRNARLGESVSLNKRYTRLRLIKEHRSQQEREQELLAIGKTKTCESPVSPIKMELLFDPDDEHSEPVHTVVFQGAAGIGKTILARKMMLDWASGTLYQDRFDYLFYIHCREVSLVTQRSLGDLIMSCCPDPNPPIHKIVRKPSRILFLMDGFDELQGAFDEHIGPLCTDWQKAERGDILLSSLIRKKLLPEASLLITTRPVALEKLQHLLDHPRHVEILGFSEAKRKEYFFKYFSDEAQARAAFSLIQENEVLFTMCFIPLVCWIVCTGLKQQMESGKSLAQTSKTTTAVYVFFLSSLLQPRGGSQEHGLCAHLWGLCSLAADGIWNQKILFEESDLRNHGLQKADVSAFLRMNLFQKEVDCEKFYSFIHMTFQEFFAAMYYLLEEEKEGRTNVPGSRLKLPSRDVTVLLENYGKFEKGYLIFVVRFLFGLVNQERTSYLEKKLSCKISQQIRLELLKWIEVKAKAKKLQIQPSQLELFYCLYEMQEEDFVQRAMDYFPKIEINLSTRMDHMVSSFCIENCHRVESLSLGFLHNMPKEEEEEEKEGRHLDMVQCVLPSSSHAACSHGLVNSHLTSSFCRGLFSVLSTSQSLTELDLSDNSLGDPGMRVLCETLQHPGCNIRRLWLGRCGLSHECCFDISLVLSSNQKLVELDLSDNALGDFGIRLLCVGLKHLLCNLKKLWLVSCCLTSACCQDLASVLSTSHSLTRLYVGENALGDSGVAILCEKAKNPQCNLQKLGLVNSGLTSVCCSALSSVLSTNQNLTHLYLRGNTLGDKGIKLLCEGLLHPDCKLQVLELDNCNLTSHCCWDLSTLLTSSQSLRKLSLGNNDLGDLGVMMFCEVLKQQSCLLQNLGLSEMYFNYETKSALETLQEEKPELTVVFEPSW
row,SMILES,EC50
1,C[C@]1(O)C[C@@H](Nc2nnc(-c3ccc(C(F)(F)F)cc3O)c3ccccc23)C1 [Compound 15],4.25 nM
2,"Cc1cc(N[C@@H]2CCCN(C)C2)nnc1-c1cc2c(cc1O)CCC2 [Compound 6, (R)-6-(4-Methyl-6-((1-methylpiperidin-3-yl)amino)pyridazin-3-yl)-2,3-dihydro-1H-inden-5-ol]",18.7 nM
3,Cc1cc(N[C@@H]2CCCN(C)C2)nnc1-c1c(O)ccc2c1CCC2 [Compound 7],22.6 nM
4,"Cc1cc(N[C@@H]2CCCN(C)C2)nnc1-c1ccc(SC(F)(F)F)cc1O (racemic) [Compound 11, rac-(R2-(4-Methyl-6-((1-methylpiperidin-3-yl)amino)pyridazin-3-yl)-5-( (trifluoromethyl)thio)phenol]",2.47 nM
5,"Cc1cc(N[C@@H]2CCCN(C)C2)nnc1-c1ccc(C(F)(F)F)cc1C(F)F [Compound 8, (R)-6-(2-(Difluoromethyl)-4-(trifluoromethyl)phenyl)-5-methyl-N-(1-methylpiperidin-3-yl)pyridazin-3-amine]",4.31 nM
6,"Cc1cc(N[C@@H]2CCCN(C)C2)nnc1-c1cc2ccccc2cc1O [Compound 9, (R)-3-(4-Methyl-6-((1-methylpiperidin-3-yl)amino)pyridazin-3-yl)naphthalen-2-ol]",41.8 nM
7,"CN1CCC[C@@H](Nc2ccc(-c3c(O)ccc4ccccc34)nn2)C1 [Compound 10, (R)-1-(6-((1-Methylpiperidin-3-yl)amino)pyridazin-3-yl)naphthalen-2-ol]",48.2 nM
8,C[C@]1(O)C[C@@H](Nc2nnc(-c3ccc(C(F)(F)F)cc3O)c3cccnc23)C1 [Compound 23],2.51 nM
9,C[C@]1(O)C[C@@H](Nc2nnc(-c3ccc(C(F)(F)F)cc3O)c3ccncc23)C1 [Compound 24],0.68 nM
10,Cc1c(N[C@H]2C[C@@](C)(O)C2)nnc(-c2ccc(C3CC3)cc2O)c1C [Compound 29],37.2 nM
11,Cc1c(N[C@H]2C[C@@](C)(O)C2)nnc(-c2ccc3c(c2O)CCC3)c1C [Compound 21],4.62 nM
12,Cc1cc(N[C@H]2C[C@@](C)(O)C2)nnc1-c1ccc(C2CC2)cc1O [Compound 28],17.4 nM
13,"OCCN1CCC[C@@H](Nc2nnc(-c3ccc(C(F)(F)F)cc3O)c3c2CCCC3)C1 (racemic) [Compound 19, rac-(R)-2-(4-(1-(2-Hydroxyethyl)piperidin-3-yl)amino)-5,6,7,8-tetrahydrophthalazin-1-yl)-5-(trifluoromethyl)phenol]",4.99 nM
14,Cc1cc(N[C@@H]2CCCN(C)C2)nnc1-c1ccc2c(c1O)CCCC2 [Compound 27],4.75 nM
15,C[C@]1(O)C[C@@H](Nc2nnc(-c3ccc(C(F)(F)F)cc3O)c3ncccc23)C1 [Compound 22],35.5 nM
16,Cc1cc(N[C@H]2C[C@@](C)(O)C2)nnc1-c1ccc2c(c1O)CCC2 [Compound 14],2.38 nM
17,"Cc1cc(N[C@@H]2CCCN(C)C2)nnc1-c1ccncc1O [Compound 13, (R)-4-(4-Methyl-6-((1-methylpiperidin-3-yl)amino)pyridazin-3-yl)pyridin-3-ol]",129 nM
18,Cc1cc(N[C@@H]2CCCN(C)C2)nnc1-c1c(O)ccc2c1CCC2 [Compound 17],14.4 nM
19,"Cc1cc(N[C@@H]2CCCN(C)C2)nnc1-c1cc2ccccc2cc1O [Compound 5, (R)-3-(4-Methyl-6-((1-methylpiperidin-3-yl)amino)pyridazin-3-yl)naphthalen-2-ol]",41.8 nM
20,"Cc1cc(N[C@@H]2CCCN(C)C2)nnc1-c1ccc2c(c1O)CCC2 [Compound 4, (R)-5-(4-Methyl-6-((1-methylpiperidin-3-yl)amino)pyridazin-3-yl)-2,3-dihydro-1H-inden-4-ol]",1.91 nM
21,C[C@]1(O)C[C@@H](Nc2nnc(-c3ccc(C(F)(F)F)cc3O)c3cnccc23)C1 [Compound 25],12.8 nM
22,"CN1CCC[C@@H](Nc2nnc(-c3c(O)cccc3F)c3c2CCC3)C1 (racemic) [Compound 20, rac-3-Fluoro-2-(4-((R)-1-methylpiperidin-3-yl)amino)-6,7-dihydro-5H-cyclopenta[d]pyridazin-1-yl)phenol]",1.23 nM

# The next lines start with the values.
row,EC50,SMILES
1,27 nM,C[C@]1(O)C[C@@H](Nc2nnc(-c3c(O)cc(C(F)(F)F)cc3F)c3cnccc23)C1 [Compound 34]
2,60 nM,Cc1cc(N[C@H]2C[C@@](C)(O)C2)nnc1-c1cc(F)c2c(c1O)CCC2 [Compound 37]
3,1.08 nM,C[C@]1(O)C[C@@H](Nc2nnc(-c3ccc4c(c3O)CCC4)c3ccccc23)C1 [Compound 31]
4,10.1 nM,Cc1cc(C(F)(F)F)cc(O)c1-c1nnc(N[C@H]2C[C@@](C)(O)C2)c2ccccc12 [Compound 46]
5,24 nM,C[C@]1(O)C[C@@H](Nc2nnc(-c3c(O)cc(C(F)(F)F)cc3F)c3ccccc23)C1 [Compound 44]
6,32.2 nM,Cc1cc(C(F)(F)F)cc(O)c1-c1nnc(N[C@@H]2CCCN(C)C2)c2c1COC2 [Compound 47]
7,1 nM,C[C@]1(O)C[C@@H](Nc2nnc(-c3ccc4c(c3O)CCC4)c3ccncc23)C1 [Compound 39]
8,22 nM,C[C@]1(O)C[C@@H](Nc2nnc(-c3c(O)cc(C(F)(F)F)cc3F)c3ccncc23)C1 [Compound 33]
9,13.4 nM,C[C@]1(O)C[C@@H](Nc2nnc(-c3ccc(C4CC4)cc3O)c3ccccc23)C1 [Compound 30]
10,127 nM,"Cc1cc(N[C@@H]2CCCN(CCO)C2)nnc1-c1ccc(C2CC2)cc1O (racemic) [Compound 36, rac-(R)-5-Cyclopropyl-2-(6-((1-(2-hydroxyethyl)piperidin-3-yl)amino)-4-methylpyridazin-3-yl)phenol]"
11,4.9 nM,Cc1cc(C(F)(F)F)cc(O)c1-c1nnc(N[C@H]2C[C@@](C)(O)C2)c2cnccc12 [Compound 45]
12,27 nM,C[C@]1(O)C[C@@H](Nc2nnc(-c3ccc(C4CC4)cc3O)c3ccncc23)C1 [Compound 41]
13,1.4 nM,CN1CCC[C@@H](Nc2nnc(-c3c(O)cc(C(F)(F)F)cc3F)c3c2COC3)C1 [Compound 35]
14,20 nM,C[C@]1(O)C[C@@H](Nc2nnc(-c3ccc(C(F)(F)F)cc3O)c3c2CCOC3)C1 [Compound 43]
15,3 nM,C[C@]1(O)C[C@@H](Nc2nnc(-c3ccc4c(c3O)CCC4)c3cccnc23)C1 [Compound 38]
16,1.1 nM,C[C@]1(O)C[C@@H](Nc2nnc(-c3ccc4c(c3O)CCC4)c3cnccc23)C1 [Compound 40]
17,20 nM,C[C@]1(O)C[C@@H](Nc2nnc(-c3ccc(C(F)(F)F)cc3O)c3c2COCC3)C1 [Compound 42]
18,0.71 nM,"OCCN1CCC[C@@H](Nc2nnc(-c3ccc(C(F)(F)F)cc3O)c3c2COC3)C1 (racemic) [Compound 32, rac-(R)-2-(4-(1-(2-Hydroxyethyl)piperidin-3-yl)amino)-5,7-dihydrofuro[3,4-d]pyridazin-1-yl)-5-(trifluoromethyl)phenol]"
